For the test, the target named is T1, androgen receptor (AR) (Homo sapiens, UniProt P10275, T878A).
T1 construct: endogenous in cells; host or cells: LNCaP
T1 sequence (P10275 1-920 T878A): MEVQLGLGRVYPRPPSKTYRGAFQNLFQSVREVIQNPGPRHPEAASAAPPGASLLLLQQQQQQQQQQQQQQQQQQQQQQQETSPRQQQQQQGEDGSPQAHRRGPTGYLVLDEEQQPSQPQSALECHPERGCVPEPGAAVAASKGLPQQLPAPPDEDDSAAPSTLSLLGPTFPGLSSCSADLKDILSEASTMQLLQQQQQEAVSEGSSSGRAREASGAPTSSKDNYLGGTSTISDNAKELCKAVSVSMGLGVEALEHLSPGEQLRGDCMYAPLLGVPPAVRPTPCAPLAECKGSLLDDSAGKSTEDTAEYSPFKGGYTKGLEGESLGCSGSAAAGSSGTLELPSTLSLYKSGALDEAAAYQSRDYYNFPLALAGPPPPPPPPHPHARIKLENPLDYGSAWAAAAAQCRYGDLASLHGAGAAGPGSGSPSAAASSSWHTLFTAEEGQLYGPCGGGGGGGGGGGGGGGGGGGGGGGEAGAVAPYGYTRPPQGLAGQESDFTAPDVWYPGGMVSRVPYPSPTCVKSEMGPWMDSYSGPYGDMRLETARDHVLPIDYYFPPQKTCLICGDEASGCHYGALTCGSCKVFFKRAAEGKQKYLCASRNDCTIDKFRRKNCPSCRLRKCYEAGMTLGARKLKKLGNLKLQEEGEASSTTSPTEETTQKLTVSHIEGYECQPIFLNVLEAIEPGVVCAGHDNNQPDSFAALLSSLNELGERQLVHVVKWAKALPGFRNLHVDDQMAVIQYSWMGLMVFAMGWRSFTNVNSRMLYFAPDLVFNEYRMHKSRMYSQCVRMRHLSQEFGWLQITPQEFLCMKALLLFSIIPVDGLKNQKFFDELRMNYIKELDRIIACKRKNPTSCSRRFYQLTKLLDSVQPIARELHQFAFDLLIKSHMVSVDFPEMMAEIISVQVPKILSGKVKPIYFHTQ
As to the kind of experiment: Androgen-induced PSA-luciferase assay, Luciferase Assay A (LNCaP transiently transfected with PSA (6.1 kb)-luciferase reporter). The class given is cell-based. The settings on record: LNCaP cells, 1 h pretreatment, R1881 (1 nM) 24 h, read-out: PSA-Luc IC50 Range. How it is done: The PSA (6.1 kb)-luciferase reporter contains functional AREs (androgen response elements) to which AR binds in response to androgen to induce luciferase activity. LNCaP cells were transiently transfected with the PSA (6.1 kb)-luciferase reporter for 24 h, and then pretreated with vehicle (DMSO) or indicated concentration of representative compounds for one hour prior to the addition of synthetic androgen, R1881 (1 nM). After 24 h of incubation with R1881, the cells were harvested, and relative luciferase activities were determined (FIG. 1). To determine the IC50, treatments were normalized to vehicle control activity induced by R1881 (Table 2).
Luciferase Assay A: Cells were lysed using Passive Lysis Buffer (Promega) and then collected into V-bottom 96-well tissue culture plates. Lysates were centrifuged at 4° C. for 5 minutes at 3000 rpm. To measure luminescence of LNCaP cell lysates the Firefly Luciferase Assay System (Promega) was employed, according to manufacturer's protocol. Relative luminescence units (RLU) in cell lysates were detected for 10 seconds using Promega GloMax-Multi Detection Luminometer (Promega). Values were normalized to protein content. GraphPad Prism graphing software was used to calculate IC50 values. Luciferase Assay A was run for all compounds in Table 2 unless otherwise noted below.
Statistical analyses were performed using GraphPad Prism (Version 6.01 for Windows; La Jolla, CA, USA). Comparisons between treatment and control groups were compared using Two-Way ANOVA with post-hoc Dunnett's and Tukey's tests. Differences were considered statistically significant at P values less than 0.05.

Take `CC(C)(c1ccc(-c2cnc(CNS(C)(=O)=O)cn2)cc1)c1cc(Cl)c(OCCCl)c(C#N)c1` [Compound A2]: the IC50 (usually the point on the concentration scale where inhibition reaches its midpoint) fell in the range of 500 to 2000 nM.
Take `CC(C)(c1ccc(-c2ccc(CNS(C)(=O)=O)cn2)cc1)c1cc(Cl)c(OCCCl)c(C#N)c1` [Compound A3]: the IC50 lay within 500 to 2000 nM.
For `CC(C)(c1ccc(-c2cnc(CNS(C)(=O)=O)nc2)cc1)c1cc(Cl)c(OCCCl)c(C#N)c1` [Compound A4] the value was 500 to 2000 nM; for `CC(C)(c1ccc(-c2ncc(CNS(C)(=O)=O)cn2)cc1)c1cc(Cl)c(OCCCl)c(C#N)c1` [Compound A5], 500 to 2000 nM.
`CC(C)(c1ccc(-c2ccc(CCNS(C)(=O)=O)nc2)cc1)c1cc(Cl)c(OCCCl)c(C#N)c1` [Compound A6]: the IC50 was under 500 nM.
Consider `CS(=O)(=O)NC1CN(CCc2ccc(Oc3cc(Cl)c(OCCCl)c(C#N)c3)cc2)C1` [Compound A7], for which the IC50 is over 2000 nM.
Regarding `CC(C)(c1ccc(CN2CCC(NS(C)(=O)=O)CC2)cc1)c1cc(Cl)c(OCCCl)c(C#N)c1` [Compound A8], the IC50 is over 2000 nM.
For `CS(=O)(=O)NC1CCN(Cc2ccc(Oc3cc(Cl)c(OCCCl)c(C#N)c3)cc2)CC1` [Compound A9], the IC50 was over 2000 nM.
Consider `CC(C)(c1ccc(-c2ccc3c(c2)COC32CN(S(C)(=O)=O)C2)cc1)c1cc(Cl)c(OCCCl)c(C#N)c1` [Compound A10], for which the half-inhibitory concentration (IC50) was in the range of 500 to 2000 nM.
To `CC(C)(c1ccc(N2CCN(CCNS(C)(=O)=O)CC2)cc1)c1cc(Cl)c(OCCCl)c(C#N)c1` [Compound A13] belongs over 2000 nM; to `CC(C)(c1ccc(N2CCOC(CNS(C)(=O)=O)C2)cc1)c1cc(Cl)c(OCCCl)c(C#N)c1` (stereo not shown) [Compound A14], 500 to 2000 nM.
Regarding `CC(C)(c1ccc(CCN2CC(NS(C)(=O)=O)C2)cc1)c1cc(Cl)c(OCCCl)c(C#N)c1` [Compound A20], the IC50 was over 2000 nM.
Turning to `CS(=O)(=O)NCc1ccc(-c2ccc(Oc3cc(Cl)c(OCCCl)c(C#N)c3)cc2)cn1` [Compound A21], the IC50 is 500 to 2000 nM.
On to `CS(=O)(=O)Nc1cnc2cc(-c3ccc(Oc4cc(Cl)c(OCCCl)c(C#N)c4)cn3)ccc2n1` [Compound A23], for which the IC50 is over 2000 nM.
For `CC(C)(c1ccc(OC[C@]2(C)C[C@@H](NS(C)(=O)=O)C2)cc1)c1cc(Cl)c(OCCCl)c(C#N)c1` [Compound A25], the half-maximal inhibitory concentration (IC50) is over 2000 nM.
For the molecule `CC(C)(c1ccc(OC[C@]2(F)C[C@H](NS(C)(=O)=O)C2)cc1)c1cc(Cl)c(OCCCl)c(C#N)c1` [Compound A26], the IC50 was over 2000 nM.
Turning to `CS(=O)(=O)Nc1cnc2cc(-c3ccc(Nc4cc(Cl)c(OCCCl)c(C#N)c4)cc3)ccc2n1` [Compound A27], the IC50 is over 2000 nM.
On to `CC(C)(c1ccc(CCN2CCC(NS(C)(=O)=O)CC2)cc1)c1cc(Cl)c(OCCCl)c(C#N)c1` [Compound A29], for which the half-maximal inhibitory concentration (IC50) was over 2000 nM.
For `CS(=O)(=O)NC1CCN(CCc2ccc(Oc3cc(Cl)c(OCCCl)c(C#N)c3)cc2)CC1` [Compound A30], the IC50 was over 2000 nM.
Take `CC(C)(c1ccc(N2CCOC(CCNS(C)(=O)=O)C2)cc1)c1cc(Cl)c(OCCCl)c(C#N)c1` (stereo not shown) [Compound A31]: the IC50 is over 2000 nM.
As to `CC(C)(c1ccc(N2CCOC3(CCN(S(C)(=O)=O)CC3)C2)cc1)c1cc(Cl)c(OCCCl)c(C#N)c1` [Compound A32], the IC50 is under 500 nM.
For the molecule `CC(C)(c1ccc(O[C@H]2CC[C@H](NS(C)(=O)=O)CC2)cc1)c1cc(Cl)c(OCCCl)c(C#N)c1` [Compound A33], the IC50 was over 2000 nM.
For `CC(C)(c1ccc(CN2CCC(NS(C)(=O)=O)C(F)(F)C2)cc1)c1cc(Cl)c(OCCCl)c(C#N)c1` (stereo not shown) [Compound A34] the value was over 2000 nM.
As for `CS(=O)(=O)NC1CCN(Cc2ccc(Oc3cc(Cl)c(OCCCl)c(C#N)c3)cc2)CC1(F)F` (stereo not shown) [Compound A35], the IC50 is over 2000 nM.
`CS(=O)(=O)NC1CN(c2ccc(-c3ccc(Oc4cc(Cl)c(OCCCl)c(C#N)c4)cc3)cn2)C1` [Compound A38]: the IC50 was 500 to 2000 nM.
For the molecule `CC(C)(c1ccc(OC[C@]2(F)C[C@@H](NS(C)(=O)=O)C2)cc1)c1cc(Cl)c(OCCCl)c(C#N)c1` [Compound A39], the IC50 fell in the range of 500 to 2000 nM.
Take `CC(C)(c1ccc(-c2ccnc(N3CC(NS(C)(=O)=O)C3)n2)cc1)c1cc(Cl)c(OCCCl)c(C#N)c1` [Compound A40]: the IC50 was over 2000 nM.
For the molecule `CC(C)(c1ccc(-c2cncc(N3CC(NS(C)(=O)=O)C3)n2)cc1)c1cc(Cl)c(OCCCl)c(C#N)c1` [Compound A41], the IC50 is over 2000 nM.
Consider `CC(C)(c1ccc(OCc2ccnc(NS(C)(=O)=O)n2)cc1)c1cc(Cl)c(OC(F)F)c(C#N)c1` [Compound A42], for which the IC50 is 500 to 2000 nM.
With `CC(C)(c1ccc(-n2cc(N3CC(NS(C)(=O)=O)C3)cn2)cc1)c1cc(Cl)c(OCCCl)c(C#N)c1` [Compound A45], the IC50 lay in the range of 500 to 2000 nM.
Take `CC(C)(c1ccc(CN2CC(NS(C)(=O)=O)CC(F)(F)C2)cc1)c1cc(Cl)c(OCCCl)c(C#N)c1` (stereo not shown) [Compound A46]: the IC50 was over 2000 nM.
For `CC(C)(c1ccc(N2CCC(N3CC(NS(C)(=O)=O)C3)CC2)cc1)c1cc(Cl)c(OCCCl)c(C#N)c1` [Compound A47], the IC50 was over 2000 nM.
In the case of `CC(C)(c1ccc(N2CCN(C3CC(NS(C)(=O)=O)C3)CC2)cc1)c1cc(Cl)c(OCCCl)c(C#N)c1` (stereo not shown) [Compound A48], the IC50 was over 2000 nM.
As to `CS(=O)(=O)Nc1cnc2cc(-c3ccc(Oc4cc(Cl)c(OCCCl)c(C#N)c4)cc3)cnc2n1` [Compound A49], the IC50 fell in the range of 500 to 2000 nM.
Regarding `CC(C)(c1ccc(-c2cnc(N3CC(NS(C)(=O)=O)C3)c(F)c2)cc1)c1cc(Cl)c(OCCCl)c(C#N)c1` [Compound A50], the IC50 was under 500 nM.
To `CC(C)(c1ccc(OC[C@]2(C)C[C@H](NS(C)(=O)=O)C2)cc1)c1cc(Cl)c(OCCCl)c(C#N)c1` [Compound A51] belongs over 2000 nM.
As for `CC(C)(c1ccc(OCc2ccnc(NS(C)(=O)=O)n2)cc1)c1cc(Cl)c(OC2CCC2)c(C#N)c1` [Compound A52], the IC50 is 500 to 2000 nM.
As to `CC(C)(c1ccc(-c2ccc(NC3CN(S(C)(=O)=O)C3)nc2)cc1)c1cc(Cl)c(OCCCl)c(C#N)c1` [Compound A53], the IC50 was under 500 nM.
As for `CC(C)(c1ccc(-c2ccc(N3CCC(NS(C)(=O)=O)C3)nc2)cc1)c1cc(Cl)c(OCCCl)c(C#N)c1` (stereo not shown) [Compound A54], the IC50 is under 500 nM.
To `CC(C)(c1ccc(-c2ccc(N3CC(CNS(C)(=O)=O)C3)nc2)cc1)c1cc(Cl)c(OCCCl)c(C#N)c1` [Compound A55] belongs under 500 nM.
`CC(C)(c1ccc(OCc2ccnc(NS(C)(=O)=O)n2)cc1)c1cc(Cl)c(OC2COC2)c(C#N)c1` [Compound A56]: the IC50 was over 2000 nM.
Take `CC(C)(c1ccc(-c2ccc(N3CCC(NS(C)(=O)=O)CC3)nc2)cc1)c1cc(Cl)c(OCCCl)c(C#N)c1` [Compound A58]: the IC50 was over 2000 nM.
In the case of `CC(C)(c1ccc(-c2ccc(N3CCCC(NS(C)(=O)=O)C3)nc2)cc1)c1cc(Cl)c(OCCCl)c(C#N)c1` (stereo not shown) [Compound A59], the IC50 is 500 to 2000 nM.
With `CC(C)(c1ccc(-c2ccc(N3CCN(S(C)(=O)=O)CC3)nc2)cc1)c1cc(Cl)c(OCCCl)c(C#N)c1` [Compound A60], the IC50 was in the range of 500 to 2000 nM.
As to `CS(=O)(=O)Nc1nc2ccc(-c3ccc(Oc4cc(Cl)c(OCCCl)c(C#N)c4)cc3)cc2o1` [Compound A61], the IC50 fell in the range of 500 to 2000 nM.
As for `CC(C)(c1ccc(OCc2ccnc(NS(C)(=O)=O)n2)cc1)c1cc(Cl)c(OC2CC2)c(C#N)c1` [Compound A62], the IC50 lay within 500 to 2000 nM.

Values taken from patent US20230373934A1, “ANDROGEN RECEPTOR MODULATORS AND METHODS FOR THEIR USE” (ESSA Pharma, Inc., priority 2022, published 2023).
